Measured values: patent US20250041307A1, “Uses of Bicyclic Compounds for the Treatment of Diseases” (Athira Pharma, Inc., priority 2021, published 2025)

Legend:
[1] = In vitro stability in rat plasma; format: in vitro ADME; conditions: 5 μM, 37° C.
Description: (§1) Bioavailability can be estimated by compound stability when exposed to conditions in the body. As an initial assessment of stability properties in a variety of conditions present in animals, exemplary compounds were tested for stability in a battery of simulated body compartments. Compounds were tested for stability in the following solutions: simulated gastric fluid (SGF: 34.2 mM NaCl, pH 1.2), simulated gastric fluid with the digestive enzyme pepsin (SGF+Enzyme: SGF with 3.2 mg/ml pepsin), simulated intestinal fluid with the mixture of enzymes in porcine pancreatin (SIF+Enzyme: 28.7 mM NaH2PO4, 105.7 mM NaCl, pH 6.8, 10 mg/ml pancreatin), rat plasma, and human plasma.
(§2) Test compounds were incubated at a final concentration of 5 μM in the above solutions at 37° C. with samples removed at the following time points: 0, 1, 2, and 4 hours. Reactions were stopped and prepared for quantification by addition of excess quench solution containing an internal standard (acetonitrile, 200 ng/mL bucetin). Test compound and internal standard in each sample was quantified by LC-MS/MS, and after internal normalization to bucetin, test compound concentration was expressed as a percentage of concentration at the 0-hour time point. Stability in the relevant test solution was then determined by the percent remaining at the 4-hour time point.

[2] = In vitro stability in human plasma; format: in vitro ADME; conditions: 5 μM, 37° C.
Description: as §1, §2

[3] = tested on: MDCK cells; test: Cell scattering behavior assay; format: cell-based; conditions: with 5 ng/mL HGF, 24 hours, normalized particle count compared to HGF treatment alone
Method in brief: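 MDCK cells starved 2 h in serum-free DMEM, then treated 24 h at 37 °C with compounds plus 5 ng/mL HGF. Cells were ethanol-fixed, WGA488-stained and imaged. Scattering was scored as particle count normalized to stained area, with activity taken as a statistical increase in normalized particle count over HGF alone.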

[4] = tested on: hepatocyte (HepG2) cell cultures; test: Cytotoxicity assay (LDH release); format: cell-based; conditions: HepG2 cells, 48 hours, 0.1 to 100 μM
Method in brief: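 Cells in EMEM+10% FBS treated 48 h at 37° C with compounds at 0.1-100 μM; cerivastatin 0.5 μM served as positive control. LDH released into supernatant measured colorimetrically at 490 nm, range set by untreated and full-lysis controls; >20% above negative control counted as cytotoxic.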

[5] = In vivo tissue distribution; design: species or system Sprague-dawley rats; conditions: rat, 10 minutes post administration
Description: The rate of distribution to target tissues is an important feature of therapeutic molecules. Tissue distribution of exemplary compounds was performed in mixed-sex Sprague-dawley rats. Test compounds were delivered via tail vein injection (IV) and tissues were collected at Tmax (10 minutes post administration). Animals were deeply anesthetized with isoflurane and whole blood was collected from the right atrium and processed by centrifugation to produce plasma. Animals were then fully perfused with PBS administered to the left ventricle to prevent blood contamination of tissues.
Tissues were collected and homogenized, and compound content in the target tissue was quantified by LC-MS/MS. Tissue distribution rates were determined by dividing the tissue concentration of compound by the plasma concentration and multiplying by 100.

| Structure (SMILES) | Rat Plasma, compound remaining after 4 hours [1] | Human Plasma, compound remaining after 4 hours [2] | Potency [3] | Cytotoxicity [4] | Tissue Distribution (% Plasma exposure at 10 min post IV dose) Brain [5] | Tissue Distribution (% Plasma exposure at 10 min post IV dose) Cerebellum [5] | Tissue Distribution (% Plasma exposure at 10 min post IV dose) Cortex [5] | Tissue Distribution (% Plasma exposure at 10 min post IV dose) Hippocampus [5] | Tissue Distribution (% Plasma exposure at 10 min post IV dose) Sciatic Nerve [5] |
| --- | --- | --- | --- | --- | --- | --- | --- | --- | --- |
| CCC(C)CN1CC2N(C(=O)c3ccc(C(F)(F)F)c(Cl)c3)CCC(=O)N2C(C)C1=O (stereo not drawn) [Compound 12, 1-(3-chloro-4-(trifluoromethyl)benzoyl)-6-methyl-8-(2-methylbutyl)hexahydro-4H-pyrazino[1,2-a]pyrimidine-4,7(6H)-dione] | ++++ (++++ indicates 100% compound remaining after 4 hours) | +++ (+++ indicates 80-99% compound remaining after 4 hours) | ++ (++ indicates maximum potency at or above 10 nM) | ++++ (++++ indicates non-toxic at 100 μM) | ++ (++ indicates distribution between 5 and 39%) | ++ (++ indicates distribution between 5 and 39%) | ++ (++ indicates distribution between 5 and 39%) | ++ (++ indicates distribution between 5 and 39%) | +++ (+++ indicates distribution between 40 and 69%) |
| CC1C(=O)N(CCC2CCC2)CC2N(C(=O)c3ccc(C(F)(F)F)cc3)CCC(=O)N12 (stereo not drawn) [Compound 20] | ++ (++ indicates 40-79% compound remaining after 4 hours) | +++ (+++ indicates 80-99% compound remaining after 4 hours) | +++ (+++ indicates maximum potency at or above 1 nM) | ++++ (++++ indicates non-toxic at 100 μM) | ++++ (++++ indicates distribution above 70%) | ++++ (++++ indicates distribution above 70%) | ++++ (++++ indicates distribution above 70%) | +++ (+++ indicates distribution between 40 and 69%) | ++++ (++++ indicates distribution above 70%) |
| C=CCCN1CC2N(C(=O)c3ccc(C(F)(F)F)cc3)CCC(=O)N2C(C)C1=O (stereo not drawn) [Compound 22] | +++ (+++ indicates 80-99% compound remaining after 4 hours) | +++ (+++ indicates 80-99% compound remaining after 4 hours) | ++ (++ indicates maximum potency at or above 10 nM) | ++++ (++++ indicates non-toxic at 100 μM) | ++ (++ indicates distribution between 5 and 39%) | ++ (++ indicates distribution between 5 and 39%) | ++ (++ indicates distribution between 5 and 39%) | ++ (++ indicates distribution between 5 and 39%) | +++ (+++ indicates distribution between 40 and 69%) |
